# Assay results as given in patent US10752593B2, “Compounds for use as therapeutically active substances in the treatment of retinal diseases” (ENDOGENA THERAPEUTICS, INC., priority 2018, dated 2020).
# System: retinal precursor cells
# Assay: Sphere passaging and high-throughput drug screening: proliferation of retinal precursor cells within one week
# Type: cell-based, mammalian
# Settings: for Cell proliferation within one week [%]: retinal precursor cells grown one week with compound in 0.1% DMSO, control without compound = 100
# Method: Kynurenic Acid (0.2 mg/mL), trypsin (1.33 mg/mL), and hyaluronidase (0.67 mg/mL) were weighed out and dissolved in high magnesium/low calcium artificial cerebral spinal fluid (aCSF) at 37° C. Fibroblast growth factor 2 (FGF2; 10 ng/mL) and heparin (2 μg/mL) were added to 100 mL of serum-free media (SFM). Ovomucoid trypsin inhibitor (1 mg/mL) was dissolved in warm SFM and sterile filtered ([…]).
# A dissecting microscope, cold light source, and sterile surgical instruments were set up inside of a sterile biological safety cabinet (BSC). Mammalian eyes were enucleated and placed in a petri dish containing cold, sterile aCSF. Under the dissecting microscope, hair, connective tissue, and the dorsal and ventral oblique muscles were cleared from the scleral/corneal border with two sets of forceps. Next, curved or angled micro-dissecting scissors were used to cleave any remaining extraocular muscle tissue, the optic nerve, and cut the eyeball into symmetrical halves; beginning and finishing the cut from the hole left by the optic nerve. Using two sets of forceps to grasp the cornea, the two eye halves were peeled apart. The lens, optic nerve, and vitreous were separated from the eye shells and the eye shells were transferred into a new petri dish (also containing cold, sterile aCSF). To isolate the ciliary epithelium (CE), eye shells were oriented with the cornea on the right and retinal pigmented epithelium (RPE) on the left. A pair of straight forceps were used to pin down the eye shell on the RPE side while a scalpel blade was inserted between the CE and the iris, using pressure to slice the iris/cornea side off from the rest of the shell. Next, the scalpel was run along the border between the CE and the RPE to obtain the CE isolated as a thin strip of tissue. The CE strips were then transferred to a 35 mm dish containing 2 mL of dispase solution (Sigma; T1005) and incubated for 10 minutes at 37° C. Next, the strips were transferred from dispase into a 35 mm dish containing 2 mL of sterile filtered kynurenic acid, trypsin and hyaluronidase solution and incubated at 37° C. for 10 minutes. After incubation, the dish was returned to the dissecting scope, and the CE strips were pinned down with straight, non-serrated forceps, while non-serrated curved forceps were used to scrape the CE off from the underlying sclera. The bare scleral strips were then discarded, such that only the CE cells remained in the enzyme solution. Using a fire-polished, cotton-plugged glass pipette, the cells and enzyme solution were transferred to a 15 mL tube and triturated approximately 45 times to break apart the tissue. The 15 mL tube/cell suspension was centrifuged for 5 minutes at 1500 rpm. The supernatant was gently aspirated from the resulting pellet using a fire-polished, cotton-plugged glass pipette and 2 mL of trypsin inhibitor solution was added to the pellet. Using a small borehole, fire-polished, cotton-plugged glass pipette, the sample was triturated approximately 45 times until it was a single-cell suspension. The 15 mL tube/cell suspension was centrifuged for 5 minutes at 1500 rpm. The supernatant was gently aspirated from the resulting pellet and 1-2 mL of SFM with FGF2 and heparin (plating media) was added. The cells and media were mixed to ensure a uniform cell suspension and a 10 uL sample was taken and cell density was determined. The cells were then seeded and cultured at 10c/μL in culture-treated plates or flasks. After one week, roughly 1 in 500 cells proliferated to form free-floating, clonal spheres greater than 80 μm in diameter.
# Human-derived spheres were passaged using the kynurenic acid, trypsin, hyaluronidase enzyme solution with the addition of collagenase I (0.5 mg/mL), collagenase II (0.5 mg/mL) and elastase (0.1 mg/mL). Mouse-derived spheres were passaged using hyaluronidase (0.67 mg/mL), collagenase I (0.5 mg/mL), and collagenase II (0.5 mg/mL) dissolved in Accustase solution (Sigma; SCR005). […]
# [1] = results table after the methods
Structure (SMILES),Cell proliferation within one week [%] [1] [%],Cell proliferation within one week [%] (concentration not given),"increase of cell proliferation within one week (increase over control, retinal precursor cells) [%]"
"COc1ccccc1CC(=O)Nc1ccc(-c2cnco2)c(F)c1 [Compound E1025, N-(3-fluoro-4-(oxazol-5-yl)phenyl)-2-(2-methoxyphenyl)acetamide]",106,106,–
"O=C(Cc1ccc(F)cc1F)Nc1ccc(-c2cnco2)c(Cl)c1 [Compound E0149, N-(3-chloro-4-(oxazol-5-yl)phenyl)-2-(2,4-difluorophenyl)acetamide]",157,157,57
"COc1ccccc1CC(=O)Nc1ccc(-c2ccncc2)c(OC)c1 [Compound E1068, N-(3-methoxy-4-(pyridin-4-yl)phenyl)-2-(2-methoxyphenyl)acetamide]",108,–,–
"O=C(Cc1ccc(Cl)cc1)Nc1ccc(-c2cnco2)c(Cl)c1 [Compound E1019, N-(3-chloro-4-(oxazol-5-yl)phenyl)-2-(4-chlorophenyl)acetamide]",133,133,–
"O=C(Cc1ccccc1OC(F)F)Nc1ccc(-c2cnco2)c(Cl)c1 [Compound E1020, N-(3-chloro-4-(oxazol-5-yl)phenyl)-2-(2-(difluoromethoxy)phenyl)acetamide]",135,135,–
"O=C(Cc1cccc(C(F)(F)F)c1)Nc1ccc(-c2cnco2)c(Cl)c1 [Compound E1018, N-(3-chloro-4-(oxazol-5-yl)phenyl)-2-(3-(trifluoromethyl)phenyl)acetamide]",134,134,–
"O=C(Cc1cccc(OC(F)F)c1)Nc1ccc(-c2cnco2)c(F)c1 [Compound E1027, 2-(3-(difluoromethoxy)phenyl)-N-(3-fluoro-4-(oxazol-5-yl)phenyl)acetamide]",120,120,–
"COc1cc(NC(=O)Cc2cccc(OC(F)F)c2)ccc1-c1ccncc1 [Compound E1066, 2-(3-(difluoromethoxy)phenyl)-N-(3-methoxy-4-(pyridin-4-yl)phenyl)acetamide]",108,–,–
